Patent US20090270278A1, “Methods and compounds for making arrays” (AMBERGEN, Inc., priority 2007, published 2009)

Molecular target: T1, protein kinase Cα (PKCα) (Homo sapiens, UniProt P17252)
T1 construct: isolate and photo-release endogenous PKCa from the undiluted detergent fractionated HeLa cell extracts; endogenous in cells; host or cells: HeLa cells (ATCC)
Test: PMA-mediated PKCα sub-cellular translocation, measured by kinase activity after isolation with photocleavable antibodies
Type: cell-based
Conditions: cultured HeLa cells stimulated with 200 nM PMA for 5 min, detergent-fractionated, based on kinase activity, n=4
Method: FIG. 20. Phorbol ester (PMA) mediated protein kinase Cα (PKCα) sub-cellular translocation as measured by functional activity following isolation with photocleavable antibodies. Cultured HeLa cells were stimulated with 200 nM PMA for 5 min and detergent fractionated into the cytosol and membrane compartments prior to isolation and purification with the photocleavable antibodies.
Cultured HeLa cells (ATCC; Manassas, Va.) were stimulated for 5 min with 200 nM Phorbol-12-Myristate-13-Acetate (PMA; EMD Biosciences, Inc., San Diego, Calif.) and subsequently detergent fractionated into sub-cellular compartments according to reported procedures [Ramsby et al. (1994) Electrophoresis 15, 265-277; Ramsby & Makowski. (1999) Methods Mol Biol 112, 53-66; Chiang et al. (2000) J Biochem Biophys Methods 46, 53-68]. PMA is a potent activator of PKCα and is well known to cause translocation of the kinase from the cytosolic to the membrane sub-cellular compartments [Ross & Joyner. (1997) Endothelium 5, 321-332; Bazan & Rapoport. (1996) JPharmacol Toxicol Methods 36, 87-95; Yazlovitskaya & Melnykovych. (1995) Cancer Lett 88, 179-183]. […]

Q: Which results are given for `CCCCCCCCCCCCCC(=O)O[C@@H]1[C@@H](C)[C@@]2(O)[C@@H](C=C(CO)C[C@]3(O)C(=O)C(C)=C[C@@H]23)[C@@H]2C(C)(C)[C@]12OC(C)=O` [PMA, Phorbol-12-Myristate-13-Acetate]?
A: relative sub-cellular distribution of PKCα, membrane (baseline 21±2% membrane): 84±3%; relative sub-cellular distribution of PKCα, cytosol (baseline 79±7% cytosol): 16±4%
